The record followed here is patent US6747052B2, “Substituted indole-2-carboxylic acid benzylidene-hydrazides and analogs as activators of caspases and inducers of apoptosis and the use thereof” (Cytovia, Inc., priority 2000, dated 2004).

In one experiment the test system is T-47D. Put plainly: Inhibition of cell proliferation (GI50, CellTiter 96 AQueous One) in T-47D cells. In kind it is cell-based. The settings on record: Homo sapiens, T47D, 48 h, read-out: GI50 (dose for 50% inhibition of cell proliferation). How it is done: T-47D and ZR-75-1 cells were grown and harvested as in Example 1. An aliquot of 90 μl of cells (2.2×10^4 cells/ml) was added to a well of a 96-well microtiter plate containing 10 μl of a 10% DMSO in RPMI-1640 media solution containing 1 nM to 100 μM of 5-chloro-3-methyl-indole-2-carboxylic acid (4-nitrobenzylidene)-hydrazide (Compound A) or 5-chloro-3-phenyl-indole-2-carboxylic acid (4-nitrobenzylidene)-hydrazide (Compound B) (0.1 nM to 10 μM final). An aliquot of 90 μl of cells was added to a well of a 96-well microtiter plate containing 10 μl of a 10% DMSO in RPMI-1640 media solution without compound as the control sample for maximal cell proliferation (AMax). The samples were mixed by agitation and then incubated at 37° C. for 48 h in a 5% CO2-95% humidity incubator. […] Using an absorbance plate reader (Model 1420 Wallac Instruments), an initial reading (T=0) was made approximately 1-2 min after addition of the solution, employing absorbance at 490 nm. This determines the possible background absorbance of the test compounds. No absorbance for 5-chloro-3-methyl-indole-2-carboxylic acid (4-nitrobenzylidene)-hydrazide or 5-chloro-3-phenyl-indole-2-carboxylic acid (4-nitrobenzylidene)-hydrazide was found at 490 nm. After the 2-4 h incubation, the samples were read for absorbance as above (ATest). […]

The subject of a further experiment is Jurkat cells. Put plainly: Mitotic arrest in Jurkat cells (mitotic figures, Syto 16). It counts as cell-based. The settings on record: Homo sapiens, 6 h. How it is done:
Jurkat cells were incubated with a range of concentrations of 5-chloro-3-methyl-indole-2-carboxylic acid (4-nitrobenzylidene)-hydrazide (0.02 μM to 5 μM) for 6 h under normal growth conditions; control cultures were treated with DMSO vehicle. The cells were then treated for 20 min. with 800 nM Syto 16 (Molecular Probes, Eugene, Oreg.). Cytospin preparations were then prepared and the samples were viewed by fluorescent microscopy using a fluorescein filter set. For each concentration of test compound, the number of mitotic figures were counted and expressed as a percentage of the total number of cells. Three fields from each condition were evaluated and the mean and SEM were calculated and plotted as a function of drug concentration (FIG. 2).

Another experiment deals with T47D cells. Put plainly: Cell cycle arrest and apoptosis in T47D cells (propidium iodide flow cytometry). It counts as cell-based, Human. Particulars: 10 μM, 48 h. How it is done: T47D, a breast cancer cell line, was maintained and harvested as described in Example 1. 1×10^6 Cells were treated with 10 μM of 5-chloro-3-methyl-indole-2-carboxylic acid (4-nitrobenzylidene)-hydrazide for 48 h at 37° C. As a control, cells were also incubated with equivalent amount of solvent (DMSO). Cells were harvested at 1,200 rpm and washed twice with 5 mM EDTA/PBS. Cells were then resuspended in 300 μl EDTA/PBS and 700 μl of 100% ethanol, vortexed and incubated at room temperature for 1 h. Samples were spun down at 1,200 rpm for 5 min and the supernatant was removed. A solution containing 100 μg/ml of propidium iodide and 1 mg/ml of RNAse A (fresh) was added to the samples and incubated for 1 h at room temperature. Samples were then transferred to 12×75 mm polystyrene tubes and analyzed on a flow cytometer. All flow cytometry analyses were performed on FACScalibur (Becton Dickinson) using Cell Quest analysis software. The x-axis plotted the amount of fluorescence and the y-axis is plotted the number of cells with the indicated fluorescence. […] An increase in the sub-diploid DNA content of cells (marker M1 region, FIG. 3) is also seen to increase from 2% to 25% with compound treatment. The sub-diploid amount of DNA (M1) is indicative of apoptotic cells which have undergone DNA degradation or fragmentation.

Another experiment concerns HeLa cells. As to the kind of experiment: Clonogenic survival of HeLa cells. It counts as cell-based. The settings on record: Homo sapiens. As to the method:
HeLa cells were grown according to media component mixtures designated by American Type Culture Collection +10% FCS (Invitrogen Corporation, Life Technologies division), in a 5% CO2-95% humidity incubator at 37° C. In a well of a 96 well plate, 30,000 cells were seeded and treated with testing compound at the indicated concentrations for 48 hr in a 5% CO2-95% humidity incubator at 37° C. Control wells were treated with the same amount of solvent (DMSO) as the compound samples. After the indicated treatment time, the supernatant was removed to a sterile culture tube and the wells washed with phosphate buffered saline, and the adherent cells trypsinized for 5 min. The trypsinzed cells were added to the culture supernatant, cells were collected (1,200 rpm, 10 min), washed with phosphate buffered saline, and resupended in fresh media. The cells were counted for trypan blue negative cells, and the cells diluted with fresh media to 1,000 cells/ml. To a well of a 24-well plate, 0.1 ml of the cell suspension was added along with 1 ml of fresh media (cell suspensions were passed through a 22G needle several times just before plating to form single cell suspensions). Plates are incubated in a 5% CO2-95% humidity incubator at 37° C. for 5-7 days. Colonies are counted when the sizes reached greater than 50 cells per colony. Cells are washed with phosphate buffered saline, fixed with 100% methanol for 15 min, and then stained with 0.5% gentian violet for 15 min. Colonies are rinsed with water and the colonies counted and the fraction surviving expressed as the percentage of the number of control colonies.

Each structure is given as a SMILES string. “Also recorded” adds a separate entry of the source. Like-named read-outs stand apart in the source and are kept apart here.

Turning to `Cc1c(C(=O)NN=Cc2ccc([N+](=O)[O-])cc2)[nH]c2ccc(Cl)cc12` [Compound A, 5-chloro-3-methyl-indole-2-carboxylic acid (4-nitrobenzylidene)-hydrazide], the GI50 in the experiment with T-47D was found to be 2000 nM. The EC50 in the experiment with Jurkat cells was ~800 nM. For the same compound, the “G2/M DNA content (M4) of cells” value with T47D cells is given as “increase in G2/M DNA content; also recorded: an increase in the G2/M (M4)”. Moreover, in the experiment on T47D cells (control 2%), the “Sub-diploid DNA content of cells (M1)” value is 25%. In addition, the IC50 is ~3000 nM in the experiment with HeLa cells (48 hr treatment, read-out: IC50 of colony forming ability) and ~3000 nM in the experiment with HeLa cells (48 h treatment, FIG. 4 legend, read-out: IC50 of colony formation).
